What all share (type): cell-based
In one test the test system is MDA-MB-468 cells. Put plainly: MTT proliferation assay, MDA-MB-468. To be noted: Homo sapiens, MDA-MB-468, 48 h, MDA-MB-468, MTT. The protocol: (§1) Test results were recorded. A cell growth curve was drawn with the dosage of each compound as abscissa and the absorbance value as ordinate.
The next test concerns MDA-MB-231 cells. As to the kind of experiment: MTT proliferation assay, MDA-MB-231. The conditions noted are these: Homo sapiens; MDA-MB-231, MTT, 48 h. The protocol:
as §1

Another test relates to SMMC-7721 cells. Put plainly: MTT proliferation assay, SMMC-7721. To be noted: Homo sapiens; SMMC-7721, MTT, 48 h. The protocol: (§2) Difference cell lines HepG2, SMMC-7721, HuH-7, MCF-7, MDA-MB-231, MDA-MB-468, PC9, PC9-AR, PC9-GR, Jurkat and Molt-13 were harvested during log phase; the number of the cells in an original cell suspension was counted; the original cell suspension was diluted to a density of 5×10^4 cells/mL; for a 96-well plate, 100 uL of the cell suspension was transferred to each well; DMSO is used as solvent for negative control; (2E)-3-(6-bromo-2-pyridyl)-2-cyano-N-[(1S)-1-phenylethyl]-2-acrylamide (WP1066CAS: 857064-38-1, with a formula
(§3) or gefitinib was used as a positive control; the naphthylurea compound ID1120B-1 and the phosphate ID1120B-P thereof were diluted with DMSO and added into the 96-well plate to achieve a final concentration of 0.1, 0.3, 1, 3, 10, 30, 100 and 300 μmol/L in each well; the 96-well plate was incubated for 48 h; 10 μL of MTT solvent (5 mg/mL) was added into each well; the 96-well plate was incubated at 37° C. for 4 h; a culture supernatant was discarded; 150 μL of DMSO was added into each well; the 96-well plate was shaken for 10 min on a plate shaker; an optical density (OD) of the resulting product was measured at a wavelength of 490 nm by an ELISA reader. Test results were recorded. A cell growth curve was drawn with the dosage of each compound as abscissa and the absorbance value as ordinate. The half maximum inhibition rates (IC50 value) of the cancer cells were shown in Table 1, FIGS. 1A-1J and FIGS. 2A-2J.

Test [1] deals with HepG2 cells. Put plainly: Cell cycle analysis by PI flow cytometry. To be noted: HepG2, 48 h; for induction of cells in the G2/M phase / percentage of cells in the G1/S phase: compared with negative control (DMSO); for length of the G2 phase, % of the cell cycle, after treatment: value reached after treatment (increase from DMSO control value). The protocol: HepG2 cells were harvested during log phase, digested, centrifuged and prepared into a single cell suspension; the number of the cells in the single cell suspension was counted; the cells were seeded into a 12-well plate, with 2×10^5 cells per well; three wells were used as a parallel control design; 16 hours after seeding, the cells were treated with the compounds in a concentration gradient for 48 h; the cells were digested with trypsin and resuspended; the number of the cells in the cell suspension was counted and diluted to 5×10^5 cells/mL; after the digestion was completed, the cell suspension was centrifuged; the supernatant was discarded; the pellet was washed twice with PBS (each time the mixture was centrifuged 2000 rpm for 5 min); the supernatant was discarded; a fixative comprising 980 μL of 70% cold ethanol and 20 μL of 5% BSA (a small amount of BSA reduces cellular stress and damage) was added to each microcentrifuge tube, so that the cells were fixed overnight at 4° C.; the fixative is discarded; the cells were washed three times in PBS to remove residual fixative (each time the mixture was centrifuged at 1000 rpm for 3 min); a DNA quantification kit is used to measure the content of DNA according to the following instruction (Suo Laibao, Beijing): each sample was incubated in 100 μL of RNase A at 37° C. for 30 min; 500 μL of PI (propidium iodide) was added to each sample; each sample was incubated at room temperature for 30 min in the dark; the cell cycle was analyzed by a flow cytometry and a ModFit software; and Graphpad prism 6.0 was used to estimate the percentage of a cell population in the different phases of the cell cycle.

The subject of another test is MCF-7 cells. As to the kind of experiment: MTT proliferation assay, MCF-7. The conditions noted are these: Homo sapiens, MCF7; MCF-7, MTT, 48 h; read-out: IC50. The protocol: as §1
Test [2] deals with HepG2 cells. As to the kind of experiment: MTT proliferation assay, HepG2. The protocol:
as §2, §3

The test system of another test is MOLT-13 cells. Put plainly: MTT proliferation assay, MOLT-13. To be noted: MOLT-13, MTT. The protocol: as §2, §3
The test system of the next test is Jurkat cells. As to the kind of experiment: MTT proliferation assay, Jurkat. The conditions noted are these: 48 h. The protocol: as §2, §3
Another test relates to HepG2 liver cancer cells. As to the kind of experiment: Annexin V-FITC/PI apoptosis flow cytometry. The conditions noted are these: HepG2, 48 h; for induction of apoptosis: compared with the control group. The protocol: The HepG2 cells were harvested during log phase, digested, centrifuged and prepared into a single cell suspension; the number of the cells in the cell suspension was counted; the cells were seeded into a 12-well plate, with 2×10^5 cells per well; three wells were used as a parallel control design; 16 hours after seeding, the cells were treated with the compounds in a concentration gradient for 48 h; the cells were digested with EDTA-free trypsin and resuspended; the number of the cells in the cell suspension was counted and diluted to 1×10^6 cells/mL; an annexin V apoptosis detection kit was used according to the following instruction (Suo Laibao, Beijing): the cells were washed twice with 1×PBS (each time the mixture was centrifuged at 6000 rpm for 0.5 min), washed once with 1×Binding buffer (and the mixture was centrifuged at 6000 rpm for 0.5 min); the supernatant was discarded; the cells were resuspended with 300 μL of 1×Binding buffer; 5 μL of Annexin V-FITC was added into each tube, and incubated in the dark for 10 min; 5 μL of PI was added into each tube and incubated in the dark for 5 min; and each tube was then inspected on a machine in the dark.

The subject of the next test is HuH-7 cells. As to the kind of experiment: MTT proliferation assay, HuH-7. To be noted: Homo sapiens; HuH-7, MTT, 48 h. The protocol:
as §2, §3

The test system of another test is PC9 cells. As to the kind of experiment: MTT proliferation assay, PC9. The conditions noted are these: Homo sapiens, PC-9, 48 h. The protocol: as §1
Another test deals with PC9GR cells. Put plainly: MTT proliferation assay, PC9GR. To be noted: 48 h. The protocol:
as §1

The test system of another test is PC9AR cells. As to the kind of experiment: MTT proliferation assay, PC9AR. The conditions noted are these: 48 h. The protocol: as §1
A further test has as its system CDC2 (gene name: CDK1). Put plainly: qPCR of mRNA expression, CDK1. To be noted: HepG2, 10 μM, 24 h, normalised to β-actin. The protocol: (§4) HepG2 liver cancer cells were seeded in a 6-well plate, with 1×10^6 cells per well, and treated with the compound IY1214B-2 (in 0 and 10 μM concentrations) for 24 h; total RNA was extracted from the HepG2 liver cancer cells by a single-step TRIzol method; the concentration and purity of the total RNA was measured; the total RNA was used as a template; and complementary DNA (cDNA) was synthesized from the RNA template according to the instruction of a reverse transcription kit (Promega); sqRT-PCR and qPCR were used to quantify the expression of the genes CCNB1, CDK1 and SQSTM; and the gene ACTB was used as an internal reference gene for gene expression normalization.
(§5) A 20 μL reaction mix for qPCR contained:
(§6) Cycling conditions comprised:
(§7) After 40 cycles, the cycle threaded (CT) value of the β-actin gene was used as an initial value in comparison with the amount of the amplified product.

The next test has as its system p62 (gene name: SQSTM). Put plainly: qPCR of mRNA expression, SQSTM. To be noted: HepG2, 10 μM, 24 h, normalised to β-actin. The protocol:
as §4, §5, §6, §7

Test [3] deals with Cyclin B1 (gene name: CCNB1). Put plainly: qPCR of mRNA expression, CCNB1. The conditions noted are these: HepG2, 10 μM, 24 h, normalised to β-actin. The protocol:
as §4, §5, §6, §7

Setting [4] is: concentration of 8 μL (so in the source).

pIC50: −log10 of the molar value.

From patent US20230271928A1, “NAPHTHYLUREA COMPOUND, METHODS OF PREPARATION AND USE THEREOF” (Henan Radiomedical Science and Technology Co., Ltd., priority 2021, published 2023) come the findings set out here.

Regarding `O=C(Nc1ccc(Cl)c(Cl)c1)Nc1ccc(OCc2ccc(OCCN3CCCCC3)cc2)c2ccccc12` [ID1214B-1], the negative logarithm of the IC50 (pIC50) with MDA-MB-468 cells is 3.16; in the test on MDA-MB-231 cells, 3.94; with SMMC-7721 cells, 5.06; in the test on MCF-7 cells it was 4.05; in the test on HepG2 cells [2] (Homo sapiens, HepG2, 48 h), 6.06. For the same compound, the “induction of cells in the G2/M phase” value with HepG2 cells [1] was “dramatically induce the liver cancer cells in the G2/M phase in a dose-dependent manner”. In addition, the “percentage of cells in the G1/S phase” value in the test with HepG2 cells [1] is reported as “significantly decrease the percentage of the liver cancer cells in the G1/S phase”. Moreover, the “length of the G2 phase, % of the cell cycle, after treatment” value in the test on HepG2 cells [1] was 17.54%.
As for `O=C(NCc1ccccc1)Nc1ccc(OCc2ccc(OCCN3CCCCC3)cc2)c2ccccc12` [ID1120B-P, 1-benzyl-3-(4-((4-(2-(piperidin-1-yl)ethoxy)benzyl)oxy)naphthalen-1-yl)urea phosphate], the pIC50 in the test on MOLT-13 cells (48 h, phosphate) was 5.01; in the test on Jurkat cells (phosphate) it was 5.32; with HepG2 cells [2] (Homo sapiens, HepG2, 48 h) it was 5.63.
As for `COc1ccc(NC(=O)Nc2ccc(OCc3ccc(OCCN4CCCCC4)cc3)c3ccccc23)cc1` [IY1214A-1], the pIC50 with MDA-MB-231 cells is 5.68; with SMMC-7721 cells, 5.45; in the test on HuH-7 cells it was 5.56; in the test on MCF-7 cells, 5.45; in the test on HepG2 cells [2] (Homo sapiens, HepG2, 48 h) it was 5.73. In addition, the apoptosis rate is listed as 57.7% with HepG2 liver cancer cells (4 μM) and 63% in the test with HepG2 liver cancer cells (8 μM). For the same compound, the “apoptosis rate, times higher than that of untreated wells” value with HepG2 liver cancer cells (4 μM and 8 μM) was “more than 2 times”. For the same compound, the induction of apoptosis result in the test with HepG2 liver cancer cells is “induce apoptosis in the HepG2 liver cancer cells in a dose-dependent manner”. The “induction of cells in the G2/M phase” value in the test with HepG2 cells [1] is given as “dramatically induce the liver cancer cells in the G2/M phase in a dose-dependent manner”. Besides, the “percentage of cells in the G1/S phase” value with HepG2 cells [1] is given as “significantly decrease the percentage of the liver cancer cells in the G1/S phase”. Also, the “length of the G2 phase, % of the cell cycle, after treatment” value with HepG2 cells [1] came out at 34.54%.
Consider `C[C@H](NC(=O)/C(C#N)=C/c1cccc(Br)n1)c1ccccc1` [WP1066, (2E)-3-(6-bromo-2-pyridyl)-2-cyano-N-[(1S)-1-phenylethyl]-2-acrylamide, reference compound], for which the pIC50 is 4.77 in the test with MOLT-13 cells (Homo sapiens, MOLT-13, 48 h); 5.00 in the test on Jurkat cells (Homo sapiens); 5.03 with PC9 cells; 4.88 with MDA-MB-468 cells; 4.99 in the test on MDA-MB-231 cells; 4.83 in the test with PC9GR cells. Also, the pIC50 was 4.93 in the test with SMMC-7721 cells; 5.07 with PC9AR cells; 5.09 in the test on HuH-7 cells; 4.74 in the test on MCF-7 cells; 5.04 in the test on HepG2 cells [2] (Homo sapiens, HepG2, 48 h).
`O=C(NCc1ccccc1)Nc1ccc(OCc2ccc(OCCN3CCCCC3)cc2)c2ccccc12` [ID1120B-1, 1-benzyl-3-(4-((4-(2-(piperidin-1-yl)ethoxy)benzyl)oxy)naphthalen-1-yl)urea]: the pIC50 with MOLT-13 cells (Homo sapiens, MOLT-13, 48 h) was 4.97; in the test on Jurkat cells (Homo sapiens) it was 5.49; in the test on PC9 cells it was 4.85; in the test on MDA-MB-468 cells it was 5.31; in the test with MDA-MB-231 cells, 4.76; with PC9GR cells it was 4.49. The pIC50 with SMMC-7721 cells was 5.45; in the test with PC9AR cells, 5.10; with HuH-7 cells it was 5.50; with HepG2 cells [2] (48 h), 5.78. The “induction of cells in the G2/M phase” value with HepG2 cells [1] is on record as “dramatically induce the liver cancer cells in the G2/M phase in a dose-dependent manner”. Further, the “percentage of cells in the G1/S phase” value in the test with HepG2 cells [1] is “significantly decrease the percentage of the liver cancer cells in the G1/S phase”.
As to `O=C(Nc1ccc(OC(F)(F)F)cc1)Nc1ccc(OCc2ccc(OCCN3CCCCC3)cc2)c2ccccc12` [IY1214B-2], in the test on MDA-MB-468 cells, the pIC50 was 5.41. The same compound showed a pIC50 in the test with SMMC-7721 cells of 4.50. Besides, the induction of apoptosis result in the test on HepG2 liver cancer cells is “induce apoptosis in the HepG2 liver cancer cells in a dose-dependent manner”. Also, in the test on HepG2 liver cancer cells (setting [4]), the apoptosis rate was determined as 47.1% and the “apoptosis rate, times higher than that of untreated wells” value is 3.3 times. Moreover, in the test on HepG2 cells [1], the “induction of cells in the G2/M phase” value was “dramatically induce the liver cancer cells in the G2/M phase in a dose-dependent manner”; the “percentage of cells in the G1/S phase” value is reported as “significantly decrease the percentage of the liver cancer cells in the G1/S phase”; the “length of the G2 phase, % of the cell cycle, after treatment” value amounted to 21.71%. The “CDK1 mRNA level down-regulated by” value in the test with CDC2 (gene name: CDK1) is on record as 20-25%. Besides, the “SQSTM (p62) expression level up-regulated by” value with p62 (gene name: SQSTM) is 2.5 times. Further, in test [3], the “CCNB1 mRNA level down-regulated by” value was 20-25%. The pIC50 in the test on HuH-7 cells is 4.64. The compound further had a pIC50 with HepG2 cells [2] (Homo sapiens, HepG2, 48 h) of 5.41.
